Test results: patent publication US6835563B1, “Compositions and methods for increasing cholesterol efflux and raising HDL ATP binding cassette transporter protein ABC1” (CV Therapeutics, priority 1999, dated 2004)

Experiments:
[1] = test system: normal fibroblasts; test: HDL- and apo A-I-mediated [3H]cholesterol efflux from normal fibroblasts; type: cell-based, human; conditions: HDL 40 μg protein/ml or apo A-I 10 μg/ml, up to 48 h
Experimental: (§1) Cell Cultures: Human fibroblasts were obtained from skin explants from two normal subjects (NL1) and three unrelated patients with Tangier disease (TD). TD1 cells were obtained from a person with extremely low plasma HDL cholesterol and apo A-I levels and clinical symptoms typical of Tangier disease. […] TD3 cells were obtained from a person with Tangier disease who presented with orange tonsil remnants, asymmetrical motor neuropathy, plasma HDL cholesterol of 5 mg/dL, and LDL cholesterol of 16 mg/dL (Lawn et al., J. Clin. Invest., 104, R25-R31 (1999)). The normal cells and TD subject cells were immortalized as described in Oram et al., J. Lipid. Res., 40: 1769-1781 (1999). Briefly, the cells were transfected with amphotropic retroviruses containing vectors with inserts of human papillomavirus 16-oncogenes E6 and E7 and a neomycin resistance selectable marker. Control cells were infected with vector alone (mock-infected). Pooled cell populations were selected in the presence of G418 for two passages, after which G418 was excluded from the medium. Fibroblasts were used between the fifth and sixteenth passage (primary) or sixth and fourteenth passage (immortalized). The immortalized normal and TD cells were seeded into 16-mm wells or 35-mm dishes and grown to confluence in. Dulbecco's modified. Eagle's medium (DMEM) plus 10% fetal bovine serum (FBS) before experimental use. […]

[2] = test system: TD fibroblasts; test: HDL- and apo A-I-mediated [3H]cholesterol efflux from Tangier disease fibroblasts; type: cell-based, human; conditions: HDL 40 μg protein/ml or apo A-I 10 μg/ml, up to 48 h
Experimental: as §1

[3] = test system: ABC1 mRNA; test: ABC1 mRNA by quantitative RT-PCR in normal fibroblasts; type: cell-based, human; conditions: apo A-I 10 μg/ml 18-24 h
Experimental: (§2) To determine whether ABC1 plays a rate-limiting role in cellular sterol efflux, the synthesis of ABC1 was measured under various cellular conditions related to cholesterol efflux processes. Specifically, normal fibroblasts and TD fibroblasts were individually exposed to conditions of excess cAMP, cholesterol, or Apo A-I. Cell cultures of normal skin fibroblasts and TD1 and TD2 fibroblasts were prepared as described in Example 1. The level of ABC1 mRNA was measured by RT-PCR. Cell cultures: Immortalized cell cultures of normal skin fibroblasts and TD1 and TD2 fibroblasts were prepared as described in Example 1. Cells were grown to subconfluence in DMEM/10% FBS before replacement with DMEM/BSA and the indicated additive for 24 or 48 hours. RNA was prepared as described in Example 2. RT-PCR: Quantitative PCR was carried out using the GeneAmp 5700 Sequence. Detection System (Perkin-Elmer Applied Biosystems, Foster City, Calif.). Briefly, 500 ng of DNase-treated mRNA was reverse transcribed using random hexamer primers at 2.5 μM. Approximately 5% of this reaction was amplified by PCR using the SYBR green core kit (PE. Applied Biosystems, Foster City, Calif.; Cat. #4304886) and human ABC1 primers […] […] The mRNA in each sample was quantitated by detecting the increase in fluorescence caused by SYBR green binding to the double-stranded amplification product generated during each PCR cycle. […]

[4] = test system: ABC1 mRNA; test: ABC1 mRNA by quantitative RT-PCR in TD1 and TD2 fibroblasts; type: cell-based, human; conditions: apo A-I 10 μg/ml
Experimental: as §2

[5] = test system: RAW 264.7 cells; test: Apo A-I-mediated cholesterol efflux from cholesterol-loaded RAW 264.7 macrophage cells; conditions: control cells, apo A-I only
Experimental: Assay to Measure Lipid Efflux: Apo AI-mediated efflux of cholesterol and, phospholipid was assayed according to the method described in. […] RAW 264.7 cells were cholesterol-loaded through the scavenger receptor by 24-hour incubation with acetylated LDL as described in Smith et al., J. Biol. Chem., 271:30647-30655 (1996). Briefly, RAW 264.7 cells in 24-well dishes were cholesterol-loaded and labeled overnight in 0.5 ml of DMEM supplemented with 50 μl/ml 1M glucose, 10 μl/ml 200 mM glutamine and 2% BSA and with 50 μg/ml acetylated low density lipoprotein (AcLDL) and [^3H]-cholesterol which had been pre-incubated for 30 minutes at 37° C. with AcLDL to yield a final concentration of 0.33 μCi/ml [^3H]-cholesterol. Cells were subsequently washed five times with PBS containing 1% BSA and incubated overnight (16-18 hours) in DMEM/BSA to allow for equilibrium of cholesterol pools. After equilibrium of cholesterol pools, cells were rinsed four times with PBS/BSA and incubated for one hour at 37° C. with DMEM/BSA before the efflux incubations. Efflux medium (DMEM/BSA) containing either albumin alone (control), albumin plus HDL (40 μg protein/ml), or albumin plus apo A-I (10 μg/ml, Biodesign International, Kennebunk, Me.) was added and the cells were incubated for 4, 24, or 48 hours. […] The radioactivity found in the culture medium was measured by scintillation counting after a 15-minute centrifugation at 12,000 g. The radioactivity in the cells was measured by scintillation counting after solubilization in 0.5 ml of 0.2M NaOH (Smith et al., J. Biol. Chem., 271:30647-30655 (1996)) or extraction in hexane:isopropanol (3:2 v/v) as described in Francis, et al., J. Clin. Invest., 96, 78-87 (1995). […] The efflux of cholesterol or phospholipid was expressed as the percentage of tritiated lipid counts in the medium over the total tritiated lipid counts recovered from the cells and medium (cpm medium/cpm (medium+lysate)×100).
Briefly, RAW 264.7 cells suspended at a density of 1.25×10^5 cells/ml were grown in DMEM/10% FBS supplemented with pyruvate. After 24 hours, the medium was removed and replaced with DMEM/BSA plus radiolabeled cholesterol (1 μCi/ml ^3[H]-cholesterol) and 50 μg/ml of acetylated LDL for 24 hours. The cells were then maintained for 24 hours in equilibrium medium consisting of DMEM/BSA plus either apo A-I alone (20 μg/ml), apo A-I and 8-bromo 3′, 5′ cAMP (1 mM) or apo A-I and rolipram (50 μM).

[6] = test system: ABC1 protein; test: Cell-surface ABC1 protein by biotin labeling and immunoprecipitation; type: cell-based, human; conditions: serum deprivation and cholesterol-loading (30 μg/ml, 48 h), normal and TD1 cells
Experimental: Cell-surface labeling and immunoprecipitation was used to determine whether increased expression of ABC1 protein in the plasma membrane is correlated with an increase in cholesterol efflux (FIG. 10). The relative amount of ABC1 on the cell surface was determined by cross-linking surface proteins on intact cells with the membrane-impermeable agent sulfo-NHS-biotin, followed by the steps of membrane solubilization, immunoprecipitation with ABC1 antibody, SDS-PAGE, and detection with streptavidin.
Both normal and TD1 cells were cultured under control conditions and conditions known to increase apolipoprotein-mediated cholesterol efflux (Oram, et al., J. Lip. Res., 40: 1769-1781 (1999)). […] Cholesterol-loaded cells were grown to confluence in DMEM/10% FBS and then incubated in DMEM/BSA for 48 hours with 30 μg/ml cholesterol plus 18 hours with no additives (cholesterol). […]
Detection of ABC1 Protein: The eluted biotinylated proteins were subjected to SDS-PAGE (6% gel; 150V, 5 hours) and transferred to nitrocellulose membrane (200 mA, 18 hours). The nitrocellulose was probed with streptavidin-horse radish peroxidase (Amersham Pharmacia, Piscataway, N.J.; Cat. #RPN 1231) diluted 300-fold and detected by enhanced chemiluminescence labeling (ECL) according to vendor's protocol (Amersham Pharmacia, Piscataway, N.J.). […]

Row | Molecule | efflux of [3H]-cholesterol on addition to albumin medium [1] | efflux of [3H]-cholesterol on addition to albumin medium [2] | ABC1 mRNA expression on subsequent exposure of cholesterol-loaded cells [3] | ABC1 expression on exposure of cholesterol-loaded cells ([4]; TD1 cells) | ABC1 expression on exposure of cholesterol-loaded cells ([4]; TD2 cells) | cholesterol efflux [5] [c.p.m.] | cell-surface expression of ABC1 [6]
1 | apo A-I: apolipoprotein cholesterol acceptor (Biodesign International) | promoted the efflux | little or no effect | marked decrease | did not alter ABC1 expression | slightly increased ABC1 expression | 1890 | –
2 | CC(C)CCC[C@@H](C)[C@H]1CC[C@H]2[C@@H]3CC=C4C[C@@H](O)CC[C@]4(C)[C@H]3CC[C@]12C [cholesterol] | – | – | – | – | – | – | markedly increased
